From ChEMBL document CHEMBL1159315, “Constituents of the bark and twigs of Artocarpus dadah with cyclooxygenase inhibitory activity” (J Nat Prod, 2002)
Blank lines part the entries; values can stand above or below the compound they belong to.

Assays:
[1] = Inhibition of DMBA-induced preneoplastic lesions in mouse mammary gland organ culture at 10 ug/mL; assay type: functional
[2] = target: Prostaglandin G/H synthase 1 (Homo sapiens, UniProt P23219)
[3] = target: T1, Prostaglandin G/H synthase 2 (Homo sapiens, UniProt P35354)
T1 sequence (P35354 whole entry): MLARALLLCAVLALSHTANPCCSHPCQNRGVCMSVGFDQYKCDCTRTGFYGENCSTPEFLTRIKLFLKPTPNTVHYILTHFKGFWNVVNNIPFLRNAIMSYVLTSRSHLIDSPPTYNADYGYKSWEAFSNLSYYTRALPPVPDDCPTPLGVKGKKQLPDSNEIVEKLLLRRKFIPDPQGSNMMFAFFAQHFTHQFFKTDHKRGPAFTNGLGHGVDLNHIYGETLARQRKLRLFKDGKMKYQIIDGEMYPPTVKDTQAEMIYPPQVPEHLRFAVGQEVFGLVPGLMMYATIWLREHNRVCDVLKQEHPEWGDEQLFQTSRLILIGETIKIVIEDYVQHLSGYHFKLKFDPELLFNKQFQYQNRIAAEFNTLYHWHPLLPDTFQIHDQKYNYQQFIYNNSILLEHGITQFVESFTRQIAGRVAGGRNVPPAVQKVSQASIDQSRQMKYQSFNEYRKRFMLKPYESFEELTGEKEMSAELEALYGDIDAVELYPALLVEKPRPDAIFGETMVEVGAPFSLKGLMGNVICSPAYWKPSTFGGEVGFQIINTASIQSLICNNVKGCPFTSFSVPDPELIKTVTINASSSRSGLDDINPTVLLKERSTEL

Chain of Prostaglandin G/H synthase 1 (P23219 whole entry): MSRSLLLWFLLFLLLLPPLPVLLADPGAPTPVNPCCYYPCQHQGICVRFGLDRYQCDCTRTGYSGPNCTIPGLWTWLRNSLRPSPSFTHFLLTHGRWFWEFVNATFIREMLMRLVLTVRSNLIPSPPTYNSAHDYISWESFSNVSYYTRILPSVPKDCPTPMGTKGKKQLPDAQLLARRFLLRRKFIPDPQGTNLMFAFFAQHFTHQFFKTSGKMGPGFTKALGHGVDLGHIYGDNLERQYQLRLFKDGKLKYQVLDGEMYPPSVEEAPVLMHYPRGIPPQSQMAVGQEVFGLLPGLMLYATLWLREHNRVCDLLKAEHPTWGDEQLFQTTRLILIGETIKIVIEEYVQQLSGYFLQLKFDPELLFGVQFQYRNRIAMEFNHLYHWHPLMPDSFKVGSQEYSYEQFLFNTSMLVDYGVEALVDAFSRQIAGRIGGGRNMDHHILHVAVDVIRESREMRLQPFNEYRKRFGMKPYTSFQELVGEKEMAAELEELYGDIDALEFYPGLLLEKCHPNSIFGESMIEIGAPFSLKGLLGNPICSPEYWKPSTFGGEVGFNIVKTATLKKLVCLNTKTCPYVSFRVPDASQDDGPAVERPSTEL

Compound: Oc1ccc(/C=C/c2cc(O)cc(O)c2)cc1 [RESVERATROL]
- inhibition at 10 µg/mL [1]: 87.5%

Compound: Oc1cc(O)cc(-c2cc3ccc(O)cc3o2)c1 [MORACIN M]
- inhibition at 10 µg/mL [1]: 33.3%
- IC50 [3]: 22.3 µM
- IC50 [2]: 0.5 µM

Compound: CC(C)(O)[C@H](O)Cc1cc(/C=C/c2cc(O)cc(O)c2)ccc1O
- IC50 [3]: 13.9 µM
- IC50 [2]: 0.48 µM

Compound: COc1cc(C(O)C(COC(=O)/C=C/c2ccc(O)cc2)Oc2c(OC)cc(/C=C/COC(=O)/C=C/c3ccc(O)cc3)cc2OC)ccc1O (configuration not stated) [DADAHOL A]
- IC50 [3]: > 143 µM
- IC50 [2]: > 143 µM

Compound: COc1cc(C(O)C(COC(=O)/C=C/c2ccc(O)cc2)Oc2ccc(/C=C/COC(=O)/C=C/c3ccc(O)cc3)cc2OC)ccc1O (configuration not stated) [DADAHOL B]
- IC50 [3]: > 150 µM
- IC50 [2]: > 150 µM

Compound: Oc1cc(O)cc(/C=C/c2ccc(O)cc2O)c1 [OXYRESVERATROL]
- inhibition at 10 µg/mL [1]: 33.3%
- IC50 [3]: 109 µM
- IC50 [2]: 1.4 µM

Compound: O=c1cc(-c2ccc(O)cc2O)oc2cc(O)cc(O)c12 [NORARTOCARPETIN]
- inhibition at 10 µg/mL [1]: 85.2%
- IC50 [3]: > 100 µM
- IC50 [2]: 14 µM

Second part, led by results:

- IC50 [2]: 36.7 µM
Compound: Oc1cc(O)c2c(c1)O[C@H](c1ccc(O)c(O)c1)[C@@H](O)C2 [CIANIDANOL]
- inhibition at 10 µg/mL [1]: 50%

- IC50 [3]: 46.4 µM
- IC50 [2]: 5.9 µM
Compound: O=C1CC(c2ccc(O)cc2O)Oc2cc(O)cc(O)c21 (configuration not stated) [STEPPOGENIN]
- inhibition at 10 µg/mL [1]: 66.7%

- IC50 [3]: 9.5 µM
- IC50 [2]: 0.61 µM
Compound: CC(C)=CCc1cc(/C=C/c2cc(O)cc(O)c2)ccc1O
- inhibition at 10 µg/mL [1]: 7.3%

- IC50 [3]: > 230 µM
- IC50 [2]: > 230 µM
Compound: CC1OC(OC2C(=O)c3c(O)cc(O)cc3OC2c2ccc(O)cc2)C(O)C(O)C1O (configuration not stated) [ENGELETIN]

- IC50 [3]: 69.7 µM
Compound: Oc1ccc([C@H]2Oc3cc(O)cc(O)c3C[C@H]2O)cc1 [EPIAFZELECHIN (2R,3R)(-)]
- inhibition at 10 µg/mL [1]: 81.5%

- IC50 [3]: 36.7 µM
- IC50 [2]: 4.1 µM
Compound: CC(C)=CCc1cc(/C=C/c2cc(O)cc(O)c2)c(O)cc1O
- inhibition at 10 µg/mL [1]: 0%

- IC50 [3]: 19.7 µM
- IC50 [2]: 8.3 µM
Compound: C[C@@H]1O[C@@H](O[C@H]2Cc3c(O)cc(O)cc3O[C@@H]2c2ccc(O)cc2)[C@H](O)[C@H](O)[C@H]1O
- inhibition at 10 µg/mL [1]: 0%

- IC50 [3]: 15 µM
- IC50 [2]: 11.7 µM
Compound: C/C(=C\Cc1c(O)ccc(C(=O)/C=C/c2ccc(O)cc2)c1O)COC(=O)/C=C/c1ccc(O)cc1 [ISOGEMICHALCONE B]

- IC50 [3]: 38.4 µM
- IC50 [2]: 14 µM
Compound: C/C(=C/Cc1c(O)ccc(C(=O)/C=C/c2ccc(O)cc2)c1O)COC(=O)/C=C/c1ccc(O)cc1 [GEMICHALCONE B]
- inhibition at 10 µg/mL [1]: 33.3%

- IC50 [3]: > 100 µM
- IC50 [2]: 67.1 µM
Compound: O=C1c2c(O)cc(O)cc2O[C@H](c2ccc(O)cc2O)[C@H]1O [DIHYDROMORIN]
- inhibition at 10 µg/mL [1]: 81.5%
